Data on eleven compounds can be found in US11530229B2, “Cyano cyclobutyl compounds for CBL-B inhibition and uses thereof” (Nurix Therapeutics, Inc., priority 2019, dated 2022).

Assay [1] concerns primary human total T-cells. As to the kind of experiment: T-cell activation, IL-2 secretion, Biological Example 2. The note with it: 48 hours, fold change over baseline; for fold induction at 0.3 µM: 0.3 μM inhibitor; for fold induction at 1 µM: 1 μM inhibitor; for fold induction at 3 µM: 3 μM inhibitor. The assay is classed as cell-based.
The subject of assay [2] is primary human total T-cells. As to the kind of experiment: T-cell activation, CD25 surface staining, Biological Example 2. In kind it is cell-based. The note with it: 48 hours, fold change over baseline; for fold induction at 0.3 µM: 0.3 μM inhibitor; for fold induction at 1 µM: 1 μM inhibitor; for fold induction at 3 µM: 3 μM inhibitor.
The next assay has as its target Cbl-b (Homo sapiens (Human), UniProt Q13191). Briefly: Cbl-b displacement assay (Cbl-b inhibition assay), Biological Example 1. In kind it is binding. The method, then: Candidate compounds were evaluated for their ability to bind and inhibit Cbl-b, an E3 ubiquitin-protein ligase, as evidenced by their ability to displace a fluorophore-labeled probe (Example 59) bound to Cbl-b.
The ability of candidate compounds to displace a known inhibitor and thereby inhibit Cbl-b activity was measured by monitoring the interaction of Cbl-b with a fluorophore-labeled probe in the presence of the candidate compound. A truncated variant of Cbl-b (UniProt number Q13191; SEQ ID NO:1) containing an Avitag at its N-terminus was co-expressed with BirA biotin ligase and purified using a standard protocol (see Dou et al., Nature Structural and Molecular Biology, 8: 982-987, 2013; Avidity LLC).
Cbl-b Amino Acid Residues 36-427:
Fluorescently-labeled inhibitor probe was synthesized and tagged with BODIPY FL (Example 59). Cbl-b displacement assays were performed in a 384-well plate at room temperature in a 10 μL reaction volume by pre-incubating 0.5 nM Cbl-b or 0.125 nM Cbl-b (final concentration, indicated as “High” and “Low”, respectively) in an assay buffer containing 20 mM HEPES pH 7.5, 150 mM NaCl, 0.01% Triton X-100, 0.01% BSA and 0.5 mM TCEP in the presence of a candidate compound in 1% DMSO (final concentration) for 1 hour. After incubation in the presence of the candidate compound, the plate was incubated for an additional 1 hour in the presence of an approximate EC40 binding saturation consisting of 150 nM fluorescently-labeled inhibitor probe and 2 nM Streptavidin-Terbium (Cisbio) (final concentrations). Following the 1 hour incubation, the plates were read for TR-FRET signal at […] using an Envision plate reader (Perkin Elmer).

The mark [3] stands for this setting: anti-CD3 and anti-CD28 co-stimulation.
Setting [4] is: anti-CD3 and anti-CD28 co-stimulation, read-out: IL-2 secretion CD3/CD28 1 μM.
Setting [5] is: anti-CD3 stimulation alone, read-out: IL-2 secretion CD3 1 μM.
Setting [6] is: anti-CD3 and anti-CD28 co-stimulation, read-out: CD25 staining CD3/CD28 1 μM.
Setting [7] is: anti-CD3 stimulation alone, read-out: CD25 staining CD3 1 μM.
The mark [8] stands for this setting: 0.125 nM Cbl-b final concentration (Low), read-out: Cbl-b activity IC50 (Low).
[9] abbreviates: read-out: IC50 values in the Cbl-b inhibition assay of Biological Example 1.

Read-outs that look alike come from different tables or passages of the source.

Sequence of Cbl-b (Q13191 36-427): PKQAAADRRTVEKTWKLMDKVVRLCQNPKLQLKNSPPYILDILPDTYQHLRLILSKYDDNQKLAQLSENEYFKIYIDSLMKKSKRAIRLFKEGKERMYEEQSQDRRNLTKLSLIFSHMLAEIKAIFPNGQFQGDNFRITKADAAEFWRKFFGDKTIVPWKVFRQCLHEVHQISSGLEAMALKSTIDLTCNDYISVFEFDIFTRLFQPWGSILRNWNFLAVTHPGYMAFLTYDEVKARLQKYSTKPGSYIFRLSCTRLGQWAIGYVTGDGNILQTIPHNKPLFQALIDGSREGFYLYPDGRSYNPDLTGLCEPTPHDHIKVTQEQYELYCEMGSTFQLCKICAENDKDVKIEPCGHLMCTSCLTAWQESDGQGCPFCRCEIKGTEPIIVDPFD

In the case of `Cn1cnnc1C[C@]1(c2cccc(N3Cc4c(cc(CN5CC6CCC(F)(F)C6C5)cc4C(F)(F)F)C3=O)c2)C[C@H](C#N)C1` (stereo partly drawn) [Compound 47, (1r,3r)-3-(3-(6-((4,4-difluorohexahydrocyclopenta[c]pyrrol-2(1H)-yl)methyl)-1-oxo-4-(trifluoromethyl)isoindolin-2-yl)phenyl)-3-((4-methyl-4H-1,2,4-triazol-3-yl)methyl)cyclobutane-1-carbonitrile], the fold induction at 0.3 µM is > 20 in assay [1] (setting [3]) and > 1.39 in assay [2] (setting [3]). Besides, the fold induction at 1 µM in assay [1] (setting [4]) was > 20; in assay [1] (setting [5]) it was > 0.85; in assay [2] (setting [6]), > 1.39; in assay [2] (setting [7]), > 1.15. Besides, the fold induction at 3 µM in assay [1] (anti-CD3 stimulation alone) is > 0.85; in assay [2] (anti-CD3 stimulation alone), > 1.15. Further, the IC50 on Cbl-b (setting [8]) and on Cbl-b (setting [9]) was 2 to 5 nM throughout.

For `Cn1cnnc1C[C@]1(c2cccc(N3Cc4c(cc(CN5CCC6C(C5)C6(F)F)cc4C(F)(F)F)C3=O)c2)C[C@H](C#N)C1` (stereo partly drawn) [Compound 27, (1r,3r)-3-(3-(6-((7,7-difluoro-3-azabicyclo[4.1.0]heptan-3-yl)methyl)-1-oxo-4-(trifluoromethyl)isoindolin-2-yl)phenyl)-3-((4-methyl-4H-1,2,4-triazol-3-yl)methyl)cyclobutane-1-carbonitrile], the results for the fold induction at 0.3 µM in assay [1] (setting [3]) and in assay [2] (setting [3]) were ≤ 15 and ≤ 1.24, respectively. In addition, the fold induction at 1 µM in assay [1] (setting [4]) is ≤ 15; in assay [1] (setting [5]), < 0.4; in assay [2] (setting [6]) it was ≤ 1.24; in assay [2] (setting [7]), ≤ 1. The fold induction at 3 µM was 0.4 to 0.85 in assay [1] (anti-CD3 stimulation alone) and ≤ 1 in assay [2] (anti-CD3 stimulation alone). In addition, the IC50 at Cbl-b (setting [8]) is 2 to 5 nM.

As to `Cn1cnnc1C[C@]1(c2cccc(N3Cc4c(cc(CN5CCC[C@H](C(F)(F)F)C5)nc4C4CC4)C3=O)c2)C[C@H](C#N)C1` [Compound 49, (1r,3r)-3-(3-(4-cyclopropyl-1-oxo-6-(((S)-3-(trifluoromethyl)piperidin-1-yl)methyl)-1,3-dihydro-2H-pyrrolo[3,4-c]pyridin-2-yl)phenyl)-3-((4-methyl-4H-1,2,4-triazol-3-yl)methyl)cyclobutane-1-carbonitrile], the fold induction at 0.3 µM in assay [1] (setting [3]) is > 20; in assay [2] (setting [3]) it was > 1.39. Further, the fold induction at 1 µM in assay [1] (setting [4]) was > 20; in assay [1] (setting [5]), > 0.85; in assay [2] (setting [6]), > 1.39; in assay [2] (setting [7]), > 1.15. The fold induction at 3 µM in assay [1] (anti-CD3 stimulation alone) was > 0.85; in assay [2] (anti-CD3 stimulation alone), > 1.15. Besides, the IC50 at Cbl-b (setting [8]) and on Cbl-b (setting [9]) was < 1 nM in each case.

On to `Cn1cnnc1C[C@]1(c2cccc(N3Cc4c(cc(CN5CCCOCC5)cc4C(F)(F)F)C3=O)c2)C[C@H](C#N)C1` [Compound 29, (1r,3r)-3-(3-(6-((1,4-oxazepan-4-yl)methyl)-1-oxo-4-(trifluoromethyl)isoindolin-2-yl)phenyl)-3-((4-methyl-4H-1,2,4-triazol-3-yl)methyl)cyclobutane-1-carbonitrile], for which the fold induction at 0.3 µM was ≤ 15 in assay [1] (setting [3]) and 1.24 to 1.39 in assay [2] (setting [3]). Moreover, the fold induction at 1 µM is ≤ 15 in assay [1] (setting [4]), < 0.4 in assay [1] (setting [5]), 1.24 to 1.39 in assay [2] (setting [6]) and > 1.15 in assay [2] (setting [7]). For the same compound, the values for the fold induction at 3 µM in assay [1] (anti-CD3 stimulation alone) and in assay [2] (anti-CD3 stimulation alone) were 0.4 to 0.85 and 1 to 1.15, respectively. For the same compound, the IC50 on Cbl-b (setting [8]) was 2 to 5 nM.

With `C[C@@H]1CN(C(C)(C)c2cc3c(c(C(F)(F)F)c2)CN(c2cccc([C@]4(Cc5nncn5C)C[C@@H](C#N)C4)c2)C3=O)CCO1` [Compound 58, (1R,3r)-3-((4-methyl-4H-1,2,4-triazol-3-yl)methyl)-3-(3-(6-(2-((R)-2-methylmorpholino)propan-2-yl)-1-oxo-4-(trifluoromethyl)isoindolin-2-yl)phenyl)cyclobutane-1-carbonitrile], the IC50 on Cbl-b (setting [8]) and on Cbl-b (setting [9]) was 2 to 5 nM each time.

For the compound `Cn1cnnc1C[C@]1(c2cccc(N3Cc4c(cc(CN5CC6COC(C6)C5)cc4C(F)(F)F)C3=O)c2)C[C@H](C#N)C1` (stereo partly drawn) [Compound 38, (1r,3r)-3-(3-(6-((6-oxa-3-azabicyclo[3.2.1]octan-3-yl)methyl)-1-oxo-4-(trifluoromethyl)isoindolin-2-yl)phenyl)-3-((4-methyl-4H-1,2,4-triazol-3-yl)methyl)cyclobutane-1-carbonitrile], the fold induction at 0.3 µM is ≤ 15 in assay [1] (setting [3]) and > 1.39 in assay [2] (setting [3]). In addition, the fold induction at 1 µM in assay [1] (setting [4]) was 15 to 20; in assay [1] (setting [5]), 0.4 to 0.85; in assay [2] (setting [6]), > 1.39; in assay [2] (setting [7]) it was > 1.15. The results for the fold induction at 3 µM in assay [1] (anti-CD3 stimulation alone) and in assay [2] (anti-CD3 stimulation alone) were > 0.85 and > 1.15, respectively. The IC50 on Cbl-b (setting [8]) and on Cbl-b (setting [9]) was 5 to 20 nM throughout.

Turning to `C[C@@H]1CN(Cc2cc(C(=O)Nc3cccc([C@]4(Cc5nncn5C)C[C@@H](C#N)C4)c3)nc(C3CC3)n2)CCC1(F)F` [Compound 57, N-(3-((1r,3R)-3-cyano-1-((4-methyl-4H-1,2,4-triazol-3-yl)methyl)cyclobutyl)phenyl)-2-cyclopropyl-6-(((R)-4,4-difluoro-3-methylpiperidin-1-yl)methyl)pyrimidine-4-carboxamide], the figures for the fold induction at 0.3 µM in assay [1] (setting [3]) and in assay [2] (setting [3]) were 15 to 20 and 1.24 to 1.39, respectively. Besides, the fold induction at 1 µM was > 20 in assay [1] (setting [4]), 0.4 to 0.85 in assay [1] (setting [5]), 1.24 to 1.39 in assay [2] (setting [6]) and 1 to 1.15 in assay [2] (setting [7]). Besides, the figures for the fold induction at 3 µM in assay [1] (anti-CD3 stimulation alone) and in assay [2] (anti-CD3 stimulation alone) were > 0.85 and ≤ 1, respectively. In addition, on Cbl-b (setting [8]), the IC50 was < 1 nM.

Regarding `Cn1cnnc1C[C@]1(c2cccc(N3Cc4c(cc(CNC5COC(C)(C)C5)cc4C(F)(F)F)C3=O)c2)C[C@H](C#N)C1` (stereo partly drawn) [Compound 24, (1r,3r)-3-(3-(6-(((5,5-dimethyltetrahydrofuran-3-yl)amino)methyl)-1-oxo-4-(trifluoromethyl)isoindolin-2-yl)phenyl)-3-((4-methyl-4H-1,2,4-triazol-3-yl)methyl)cyclobutane-1-carbonitrile], the fold induction at 0.3 µM was ≤ 15 in assay [1] (setting [3]) and 1.24 to 1.39 in assay [2] (setting [3]). For the same compound, the fold induction at 1 µM is 15 to 20 in assay [1] (setting [4]), 0.4 to 0.85 in assay [1] (setting [5]), 1.24 to 1.39 in assay [2] (setting [6]) and > 1.15 in assay [2] (setting [7]). For the same compound, the fold induction at 3 µM lay in the range of 0.4 to 0.85 in assay [1] (anti-CD3 stimulation alone) and 1 to 1.15 in assay [2] (anti-CD3 stimulation alone). Further, the IC50 on Cbl-b (setting [8]) and on Cbl-b (setting [9]) was 2 to 5 nM each time.

`C[C@@H]1CN(Cc2cc3c(c(C(F)(F)F)c2)CN(c2cccc([C@]4(Cc5nncn5C)C[C@H](CC#N)C4)c2)C3=O)CCC1(F)F` [Compound 52, ((1S,3s)-3-(3-(6-(((R)-4,4-difluoro-3-methylpiperidin-1-yl)methyl)-1-oxo-4-(trifluoromethyl)isoindolin-2-yl)phenyl)-3-((4-methyl-4H-1,2,4-triazol-3-yl)methyl)cyclobutyl)acetonitrile]: the IC50 at Cbl-b (setting [8]) and at Cbl-b (setting [9]) was 5 to 20 nM each time.

Take `Cc1cc(C(=O)Nc2cccc([C@]3(Cc4nncn4C)C[C@@](C)(C#N)C3)c2)nc(C2CC2)n1` [Compound 8, N-(3-((1r,3r)-3-cyano-3-methyl-1-((4-methyl-4H-1,2,4-triazol-3-yl)methyl)cyclobutyl)phenyl)-2-cyclopropyl-6-methylpyrimidine-4-carboxamide]: the IC50 on Cbl-b (setting [8]) and on Cbl-b (setting [9]) was ≥ 20 nM throughout.

For the compound `C[C@@H]1CN(Cc2cc3c(c(C(F)(F)F)c2)CN(c2cccc([C@]4(Cc5nncn5C)C[C@@H](CC#N)C4)c2)C3=O)CCC1(F)F` [Compound 51, [(1r,3r)-3-[3-(6-{[(3R)-4,4-difluoro-3-methylpiperidin-1-yl]methyl}-1-oxo-4-(trifluoromethyl)-3H-isoindol-2-yl)phenyl]-3-[(4-methyl-1,2,4-triazol-3-yl)methyl]cyclobutyl]acetonitrile], the IC50 at Cbl-b (setting [8]) and on Cbl-b (setting [9]) was ≥ 20 nM throughout.
